Reference: ChEMBL document CHEMBL1129361, “Modulators of leukotriene biosynthesis and receptor activation” (J Med Chem, 1996)
Each block holds one compound with its values, some of them ahead of it.

Tests used:
Mus musculus [1] = assay: Compound was tested for in vivo inhibition against mouse AA ear edema.; assay type: functional
[2] = phase 1 oral half life at a dose 200 mg.; assay type: ADME, organism-based; details: human, in vivo
Rattus norvegicus [3] = assay: Compound was tested for in vivo inhibition against rat peritoneal anaphylaxis.; assay type: functional
RBL-1 [4] = assay: Compound was tested for in vitro inhibition against broken RBL-1.; assay type: functional; details: Rattus norvegicus
[5] = (§1) Compound was tested for in vivo inhibition against gp antigen bronchospasm.; assay type: functional; details: Cavia porcellus, Bronchiole
Homo sapiens [6] = species on record: Homo sapiens; assay: Compound was tested for in vitro inhibition against human PMNL.; assay type: functional
Cavia porcellus [7] = assay: Compound was tested for in vivo inhibition against gp AA bronchospasm.; assay type: functional; details: Bronchiole
Homo sapiens [8] = species on record: Homo sapiens; assay: Compound was tested for in vitro inhibition against human whole blood.; assay type: functional
Cavia porcellus [9] = assay: Compound was tested in vivo inhibitory activity against LTB4 induced bronchoconstriction (orally); assay type: functional; details: po
Cavia porcellus [10] = assay: Compound was tested in vivo inhibitory activity against LTB4 induced bronchoconstriction (intravenous); assay type: functional
[11] = phase 1 oral half life at a dose 200 mg. (200 mg provided >95% inhibition of ex vivo stimulated LTB4 in blood up to 18 hour post dose); assay type: organism-based; details: human
Cavia porcellus [12] = assay: as §1; assay type: functional; details: Bronchiole
[13] = molecular target: T1, Cysteinyl leukotriene receptor (Homo sapiens, UniProt Q9Y271+Q9NS75); assay: Binding affinity against Cysteinyl leukotriene D4 receptor; assay type: protein assay
T1 sequence (Q9Y271 whole entry): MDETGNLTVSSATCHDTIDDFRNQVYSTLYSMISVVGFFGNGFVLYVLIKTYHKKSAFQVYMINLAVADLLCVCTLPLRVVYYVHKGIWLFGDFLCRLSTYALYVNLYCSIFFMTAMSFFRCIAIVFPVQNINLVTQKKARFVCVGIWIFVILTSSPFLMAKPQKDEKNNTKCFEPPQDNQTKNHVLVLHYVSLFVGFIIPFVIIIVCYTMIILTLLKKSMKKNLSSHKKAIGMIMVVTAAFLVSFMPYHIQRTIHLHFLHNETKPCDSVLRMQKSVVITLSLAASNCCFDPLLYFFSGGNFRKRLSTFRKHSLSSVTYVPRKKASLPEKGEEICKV
T1 sequence (Q9NS75 whole entry): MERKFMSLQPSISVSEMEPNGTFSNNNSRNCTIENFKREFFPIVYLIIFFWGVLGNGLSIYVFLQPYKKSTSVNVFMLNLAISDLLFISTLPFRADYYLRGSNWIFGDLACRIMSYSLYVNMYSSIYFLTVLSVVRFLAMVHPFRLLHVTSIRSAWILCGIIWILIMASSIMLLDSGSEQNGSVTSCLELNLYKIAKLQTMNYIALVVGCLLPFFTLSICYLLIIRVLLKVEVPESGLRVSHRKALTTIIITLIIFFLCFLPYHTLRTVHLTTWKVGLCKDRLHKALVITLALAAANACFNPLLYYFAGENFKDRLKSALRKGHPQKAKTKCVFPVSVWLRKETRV

Homo sapiens [14] = assay: Compound was tested for fold shift in LTD4 dose response curve following 1 g oral dose; assay type: functional
Cavia porcellus [15] = assay: Compound was tested in vivo inhibitory activity against LTB4 induced bronchoconstriction in guinea pig (intravenous).; assay type: functional
Cavia porcellus [16] = assay: Compound was tested in vivo inhibitory activity against LTB4 induced bronchoconstriction in guinea pig(po); assay type: functional
Cavia porcellus [17] = species on record: Cavia porcellus; assay: Compound was tested for LTD4 induced guinea pig trachea contraction; assay type: functional; details: read-out: pA2 (converted)
Cavia porcellus [18] = species on record: Cavia porcellus; assay: Compound was evaluated for LTD4 induced against guinea pig trachea contraction; assay type: functional
Homo sapiens [19] = assay: LTD4 induced broncho constriction (shift in dose response curve 2 hr following 800 mg oral dose); assay type: functional
Homo sapiens [20] = species on record: Homo sapiens; assay: Compound was tested in vitro for inhibitory activity in LTB4 induced neutrophil degranulation; assay type: functional
Mus musculus [21] = assay: Compound was tested in vivo inhibitory activity against PMA induced ear edema.; assay type: functional
Cavia porcellus [22] = assay: Compound was tested in vivo for LTB4 induced neutrophil chemotaxis in guinea pig(orally) at duration 5.5 h; assay type: functional; details: po
Homo sapiens [23] = assay: Fold shift in LTD4 dose response curve following 250 mg oral dose.; assay type: functional
[24] = molecular target: T2, Cysteinyl leukotriene receptor 1 (Homo sapiens, UniProt Q9Y271); assay: Compound was tested for inhibitory activity against LTD4 (leukotriene).; assay type: functional
T2 sequence (Q9Y271 whole entry): T1 sequence (Q9Y271 whole entry)

Rattus norvegicus [25] = assay: Compound was tested for in vivo inhibition against rat zymosan induced exudate.; assay type: functional
[26] = phase 1 oral half life at a dose 50 mg - 750 mg.; assay type: ADME, organism-based; details: human, in vivo
Rattus norvegicus [27] = species on record: Rattus norvegicus; assay: Compound was tested for in vitro inhibition against Rat PMNL; assay type: functional
Homo sapiens [28] = assay: Compound was evaluated for LTD4 induced bronchoconstriction (shift in dose response curve 2 hr after 40 mg oral administration); assay type: functional
Cavia porcellus [29] = species on record: Cavia porcellus; assay: Compound was evaluated for LTD4 induced guinea pig trachea contraction; details: read-out: pA2 (converted)
Homo sapiens [30] = assay: Compound was evaluated for LTD4 induced bronchoconstriction (shift in dose response curve 2 hr after 40 mg oral administration) shift persisted for 24 hrs; assay type: functional
Rattus norvegicus [31] = assay: Compound was tested for in vivo inhibition against rat zymosan-inflamed air pouch; assay type: functional
Homo sapiens [32] = species on record: Homo sapiens; assay: Compound was tested for in vitro inhibition against human whole blood; assay type: functional
Mus musculus [33] = species on record: Mus musculus; assay: Compound was tested for in vitro inhibition against murine macrophage; assay type: functional
Cavia porcellus [34] = assay: Compound was tested for in vivo inhibition against gp antigen bronchospasm; assay type: functional; details: Bronchiole
Mus musculus [35] = assay: Compound was tested for in vivo inhibition against mouse AA ear edema; assay type: functional
Cavia porcellus [36] = assay: Compound was tested for in vivo inhibition on gp AA bronchospasm.; assay type: functional; details: Bronchiole
Mus musculus [37] = assay: Compound was tested for in vivo inhibition on mouse AA ear edema.; assay type: functional
Cavia porcellus [38] = assay: Compound was tested for in vivo inhibition on gp antigen bronchospasm.; assay type: functional; details: Bronchiole
RBL-1 [39] = assay: Compound was tested for in vitro inhibition on broken RBL-1.; assay type: functional; details: Rattus norvegicus
Homo sapiens [40] = species on record: Homo sapiens; assay: Compound was tested for in vitro inhibition on human PMNL.; assay type: functional
Homo sapiens [41] = species on record: Homo sapiens; assay: Compound was tested for in vitro inhibition on human whole blood.; assay type: functional
Rattus norvegicus [42] = assay: Compound was tested for in vivo inhibition on rat peritoneal anaphylaxis.; assay type: functional
[43] = Phase 1 oral half life was determined; assay type: ADME, organism-based; details: human, in vivo

half-life [2]: 7 h | IC50 (RBL-1 [4]): 54 nM | IC50 (Homo sapiens [6]): 25 nM | IC50 (Homo sapiens [8]): 80 nM
Structure (SMILES): C[C@H](C#Cc1ccc(Oc2ccc(F)cc2)o1)N(O)C(N)=O
ED50 (Mus musculus [1]): 3 mg/kg | ED50 (Rattus norvegicus [3]): 1.5 mg/kg | ED50 [5]: 2.5 mg/kg | ED50 (Cavia porcellus [7]): 2 mg/kg

Structure (SMILES): CCCc1c(OCCCOc2cc(O)c(C(C)=O)cc2CC)ccc2c1OC(C(=O)O)CC2 (centres undefined)
ED50 (Cavia porcellus [9]): 0.5 mg/kg | ED50 (Cavia porcellus [10]): 0.23 mg/kg

half-life [11]: 15 h | IC50 (RBL-1 [4]): 23 nM | IC50 (Homo sapiens [6]): 23 nM | IC50 (Homo sapiens [8]): 150 nM
Structure (SMILES): C[C@H](C#Cc1ccc(Cc2ccc(F)cc2)s1)N(O)C(N)=O [ATRELEUTON]
ED50 (Rattus norvegicus [3]): 0.6 mg/kg | ED50 (Cavia porcellus [12]): 4 mg/kg

Ki [13]: 6200 nM
Structure (SMILES): CCCc1c(OCCCS(=O)(=O)c2ccc(C(=O)CCC(=O)O)cc2)ccc(C(C)=O)c1O [L-648051]

Ki [13]: 400 nM
Structure (SMILES): CCCc1c(OCCCSc2ccc([C@@H](O)[C@H](C)CC(=O)O)cc2)ccc(C(C)=O)c1O [L-649923]
Activity (Homo sapiens [14]): 3.8

Structure (SMILES): CCc1cc(C(C)=O)c(O)cc1OCCCCCC(C)(C)c1nn[nH]n1 [LY-255283]
ED50 (Cavia porcellus [15]): 2.8 mg/kg | ED50 (Cavia porcellus [16]): 11 mg/kg

Structure (SMILES): CC(C)(O)c1ccccc1CC[C@@H](SCC1(CC(=O)O)CC1)c1cccc(/C=C/c2ccc3ccc(Cl)cc3n2)c1 [MONTELUKAST]
Kb (Cavia porcellus [17]): 0.501 nM

Ki [13]: 700 nM
Structure (SMILES): CCCCCC(O)c1cccc(OCc2ccc3ccccc3n2)c1 (centres undefined) [REV-5901]
pKB (Cavia porcellus [18]): 5.5

Ki [13]: 3 nM
Structure (SMILES): c1ccc(Cc2nn[nH]n2)c(COc2ccc(OCc3ccc4ccccc4n3)cc2)c1 [RG-12525]
Activity (Homo sapiens [19]): 7.5

IC50 (Homo sapiens [20]): 1080 nM
Structure (SMILES): CCCc1c(OCCCOc2ccc(C(C)=O)c(OC)c2CCC)ccc2c1OC(C(=O)O)CC2 (centres undefined) [SC-41390]
ED50 (Mus musculus [21]): 4200 nM | ED50 (Cavia porcellus [22]): 1.7 mg/kg

IC50 [24]: 23 nM
Structure (SMILES): O=C(O)c1ccccc1Nc1cccc(OCc2ccc3ccccc3n2)c1 [SR-2640]
Activity (Homo sapiens [23]): <2

IC50 (Homo sapiens [6]): 220 nM | half-life [26]: 4 h | IC50 (Homo sapiens [8]): 11600 nM | IC50 (Rattus norvegicus [27]): 26 nM
Structure (SMILES): O=C(O)[C@@H](c1ccc(OCc2ccc3ccccc3n2)cc1)C1CCCC1 [VELIFLAPON]
ED50 (Mus musculus [1]): 49 mg/kg | ED50 (Rattus norvegicus [25]): 8 mg/kg | ED50 (Cavia porcellus [12]): 6.3 mg/kg

Structure (SMILES): COc1cc(C(=O)NS(=O)(=O)c2ccccc2C)ccc1Cc1cn(C)c2ccc(NC(=O)OC3CCCC3)cc12 [ZAFIRLUKAST]
Activity (Homo sapiens [28]): 117 | Kb (Cavia porcellus [29]): 0.316 nM | Activity (Homo sapiens [30]): 5

IC50 (Homo sapiens [32]): 20 nM | IC50 (Mus musculus [33]): 3 nM
Structure (SMILES): COC1(c2cc(F)cc(OCc3ccc4c(ccc(=O)n4C)c3)c2)CCOCC1 [ZD-2138]
ED50 (Rattus norvegicus [31]): 0.3 mg/kg | ED50 (Cavia porcellus [34]): 0.1 mg/kg | ED50 (Mus musculus [35]): 1.8 mg/kg

IC50 (RBL-1 [39]): 100 nM | IC50 (Homo sapiens [40]): 600 nM | IC50 (Homo sapiens [41]): 700 nM | half-life [43]: 3 h
Structure (SMILES): CC(c1cc2ccccc2s1)N(O)C(N)=O (centres undefined) [ZILEUTON]
ED50 (Cavia porcellus [36]): 18 mg/kg | ED50 (Mus musculus [37]): 31 mg/kg | ED50 (Cavia porcellus [38]): 12 mg/kg | ED50 (Rattus norvegicus [42]): 3 mg/kg
